# Assay results: PMC6019934 (ChemMedChem, 2018)
# Like-named read-outs stand apart in the source and are kept apart here.
# Key:
# MraY from C. bolteae = MraY from C. bolteae (Enterocloster bolteae, UniProt R0BTE9); experiment: Fluorescence-based in vitro MraY assay, MraY from C. bolteae; format: biochemical, Clostridium bolteae; details: IC50 ± SD
# [1] = biological target: T1, MraY from Aquifex aeolicus (Aquifex aeolicus, UniProt O66465); format: biochemical
# T1 sequence (O66465 1-359): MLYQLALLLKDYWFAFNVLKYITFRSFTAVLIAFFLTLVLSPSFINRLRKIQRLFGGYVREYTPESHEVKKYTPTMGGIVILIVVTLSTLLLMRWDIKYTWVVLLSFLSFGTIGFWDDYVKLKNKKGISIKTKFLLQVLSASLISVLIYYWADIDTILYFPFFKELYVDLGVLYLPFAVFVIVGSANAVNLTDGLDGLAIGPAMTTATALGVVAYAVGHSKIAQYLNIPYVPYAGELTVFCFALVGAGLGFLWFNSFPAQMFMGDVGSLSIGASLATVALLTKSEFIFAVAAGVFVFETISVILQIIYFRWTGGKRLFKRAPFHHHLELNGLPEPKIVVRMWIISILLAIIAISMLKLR
# E. coli DH5α strain = experiment: Minimal inhibitory concentration against growth of E. coli DH5α; format: cell-based; details: Escherichia coli, read-out: MIC (E. coli DH5α)
# [2] = system: S. aureus subsp. aureus (Newman strain); experiment: Minimal inhibitory concentration against growth of S. aureus; format: cell-based
# MraY from S. aureus = biological target: T2, MraY from S. aureus (Staphylococcus aureus, UniProt Q2FZ93); experiment: biochemical; format: biochemical
# T2 sequence (Q2FZ93 1-321): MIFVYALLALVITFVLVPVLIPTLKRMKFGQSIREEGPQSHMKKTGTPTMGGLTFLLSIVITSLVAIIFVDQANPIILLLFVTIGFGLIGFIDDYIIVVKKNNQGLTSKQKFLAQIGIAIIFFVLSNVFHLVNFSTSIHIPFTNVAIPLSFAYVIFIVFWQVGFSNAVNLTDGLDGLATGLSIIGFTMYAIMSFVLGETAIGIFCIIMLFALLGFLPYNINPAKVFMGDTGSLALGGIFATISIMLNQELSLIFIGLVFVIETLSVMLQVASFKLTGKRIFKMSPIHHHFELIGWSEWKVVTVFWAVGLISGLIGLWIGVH
# [3] = system: E. coli efflux-deficient ΔtolC mutant; experiment: Minimal inhibitory concentration against growth of E. coli ΔtolC; format: cell-based
# [4] = read-out: IC50 (MraY C. bolteae crude), protein in crude membranes
# [5] = read-out: IC50 (MraY C. bolteae solubil.), protein in solubilized and purified form
# [6] = read-out: IC50 (MraY Aquifex aeolicus), solubilized and purified form, IC50 ± SD
# [7] = read-out: IC50 (MraY S. aureus), crude membranes, IC50 ± SD
# [8] = IC50 (MraY C. bolteae crude), protein in crude membranes
# [9] = IC50 (MraY C. bolteae solubil.), protein in solubilized and purified form
Compound,IC50 (MraY from C. bolteae; [4]),IC50 (MraY from C. bolteae; [5]),"IC50 [1, 6]",MIC (E. coli DH5α strain),antibacterial activity against S. aureus in words [2],IC50 (MraY from S. aureus; [7]),MIC (E. coli ΔtolC) [3],IC50 (MraY from C. bolteae; [8]),IC50 (MraY from C. bolteae; [9]),IC50 (MraY from S. aureus),IC50 [1],"fold lower inhibitory activity than C1 6 (Aquifex aeolicus) ([1]; solubilized Aquifex aeolicus protein, relative to C1 6)",fold difference in MraY inhibition between C1 6 and D1 7 (MraY from S. aureus; crude membranes only (S. aureus and C. bolteae MraY)),"fold less active MraY inhibitor than C1 6 (S. aureus) (MraY from S. aureus; crude membranes, relative to C1 6)"
"CO[C@H]1[C@H](O[C@H]([C@H]2O[C@@H](n3ccc(=O)[nH]c3=O)[C@H](O)[C@@H]2O)[C@H](NCCCNC(=O)[C@@H](NC(=O)[C@@H](NC(=O)N[C@H](C(=O)O)C(C)C)[C@@H]2CCNC(=N)N2)[C@@H](OC(=O)CCCCCCCCCCCCN(O)C(=N)N)C(C)C)C(=O)O)O[C@H](CN)[C@H]1O [A1 3, muraymycin A1]",0.017 nM,0.16 ± 0.04 nM,0.11 ± 0.02 nM,> 32 µg/mL,only congener with notable activity against S. aureus,0.027 ± 0.003 nM,2 µg/mL,,,,,,,
"CO[C@H]1[C@H](O[C@H]([C@H]2O[C@@H](n3ccc(=O)[nH]c3=O)[C@H](O)[C@@H]2O)[C@H](NCCCNC(=O)[C@@H](NC(=O)[C@@H](NC(=O)N[C@H](C(=O)O)C(C)C)[C@@H]2CCN=C(N)N2)[C@@H](OC(=O)CCCCCCC(C)C)C(C)C)C(=O)O)O[C@H](CN)[C@H]1O [B2 4, muraymycin B2]",0.0083 nM,0.14 ± 0.01 nM,0.11 ± 0.01 nM,> 32 µg/mL,,0.01 ± 0.002 nM,1 µg/mL,,,,,,,
"CO[C@H]1[C@H](O[C@H]([C@H]2O[C@@H](n3ccc(=O)[nH]c3=O)[C@H](O)[C@@H]2O)[C@H](NCCCNC(=O)[C@@H](NC(=O)[C@@H](NC(=O)N[C@H](C(=O)O)C(C)C)[C@@H]2CCN=C(N)N2)[C@@H](OC(=O)CCCCC(C)C)C(C)C)C(=O)O)O[C@H](CN)[C@H]1O [B6 5, muraymycin B6]",0.036 nM,0.38 ± 0.03 nM,0.19 ± 0.02 nM,> 32 µg/mL,,0.021 ± 0.002 nM,1 µg/mL,,,,,,,
"CO[C@H]1[C@H](O[C@H]([C@H]2O[C@@H](n3ccc(=O)[nH]c3=O)[C@H](O)[C@@H]2O)[C@H](NCCCNC(=O)[C@@H](NC(=O)[C@@H](NC(=O)N[C@H](C(=O)O)C(C)C)[C@@H]2CCNC(=N)N2)[C@@H](O)C(C)C)C(=O)O)O[C@H](CN)[C@H]1O [C1 6, muraymycin C1]",,,,> 32 µg/mL,,,1 µg/mL,0.093 nM,0.45 ± 0.17 nM,0.016 ± 0.002 nM,,,,
"CO[C@H]1[C@H](O[C@H]([C@H]2O[C@@H](n3ccc(=O)[nH]c3=O)[C@H](O)[C@@H]2O)[C@H](NCCCNC(=O)[C@H](CC(C)C)NC(=O)[C@@H](NC(=O)N[C@H](C(=O)O)C(C)C)[C@@H]2CCNC(=N)N2)C(=O)O)O[C@H](CN)[C@H]1O [D1 7, muraymycin D1]",,,,> 32 µg/mL,,,1 µg/mL,40 nM,380 ± 110 nM,0.48 ± 0.13 nM,99 ± 30 nM,ca. 280 fold,30- to 430 fold,ca. 30 fold
"CC(C)C[C@H](NC(=O)[C@@H](NC(=O)N[C@H](C(=O)O)C(C)C)[C@@H]1CCNC(=N)N1)C(=O)NCCCN[C@H](C(=O)O)[C@H](O[C@@H]1O[C@H](CN)[C@@H](O)[C@H]1O)[C@H]1O[C@@H](n2ccc(=O)[nH]c2=O)[C@H](O)[C@@H]1O [D2 8, muraymycin D2]",,,,> 32 µg/mL,,,1 µg/mL,25 nM,200 ± 30 nM,0.39 ± 0.11 nM,46 ± 13 nM,,,
